# Assay results as given in patent US5593698A, “Suppression of proliferative response and induction of tolerance with polymorphic class II MHC allopeptides” (Autoimmune, Inc., priority 1993, dated 1997).
# Test system: LEW rats
# Assay: Delayed Type Hypersensitivity (DTH) response after immunization with allopeptides
# Type: in vivo, rat
# Details: LEW rats immunized in foot pad with 12.5 μg of one fragment and CFA; FIG. 5
# Procedure: 4. Delayed Type Hypersensitivity (DTH) Response: LEW rats, used as responders, were immunized subcutaneously in the foot pad with 100 μg of the mixture of four RT1.B^u (50 μg) and four RT1.D^u (50 μg) peptides in complete Freund's adjuvant (12.5 μg of each peptide). These animals were challenged subcutaneously 2 weeks later in one ear with 10 μg of the peptide mixture and in the other ear with freshly prepared and irradiated (3000 Rads) splenocytes (10×10^6) from WF (RT1^u), syngeneic LEW (RT1^1), or third party BN (RT1^n). The DTH responses were measured with micrometer caliper (Mitutoyo, Japan) by a blinded observer as the delta ear thickness before and 2 days after the challenge (inches ×10^-2). Experiments were performed using 5 animals in each study group. P values were calculated using the student t-test.
# These experiments investigate whether, in addition to polymorphism, the native location of the allopeptide, β-pleat vs. α-helix, may be an important determinant of immunogenicity and tolerogenicity in vivo. The immunogenicity and tolerogenicity of the individual allopeptide fragments were investigated. LEW rats, used as responders, were immunized subcutaneously in the foot pad with 12.5 μg of one of the four RT1.D (1-25, 20-44, 39-64, and 60-84) and four RT1.B (1-25, 20-44, 39-64, and 68-92) allopeptide fragments and CFA. DTH responses were then determined for each of the peptide fragments. […] In FIG. 5, "RT1D mix" and "RT1B mix" refers to animals immunized with a mixture of all four allopeptides. In FIG. 5 solid bars represent immunization with cells, hatched bars represent immunization with peptides. Bars represent the change in ear thickness in […] (mean±SEM).
row,Substance,Immunogenicity of individual allopeptide fragments by DTH response
1,"RT1.B1: RT1.B allopeptide fragment 1-25, β-pleat (QRLRRDFLVQFKPYCYFTNGTQRIR)",immunogenic
2,"RT1.B2: RT1.B allopeptide fragment 20-44, β-pleat (GTQRIRNVIRYIYNREEYLRYDSDV)",immunogenic
3,"RT1.D1: RT1.D allopeptide fragment 1-25, β-pleat (RDPTPRFLGYLKPECHFYNGTNRVR)",immunogenic
4,"RT1.D2: RT1.D allopeptide fragment 20-44, β-pleat (GTNRVRLLARLIYNREEYARFDSDV)",immunogenic
